From patent US5302611A, “Oxindole alkaloids having properties stimulating the immunologic system & preparation containing the same” (Keplinger; Klaus, priority 1980, dated 1994)
Like-named read-outs stand apart in the source and are kept apart here.

Legend:
[1] = tested on: isolated polymorphonuclear leucocytes (PMNL); assay: Chemiluminescence test (CL), PMNL method (isolated granulocytes); type: cell-based, human; settings: for Peak-Maximum: control 2.12; for tmax: control 50.0
Protocol: (§1) 2. Chemiluminescence test (CL)
(§2) The low light yield of such CL-reactions of phagocytised cells is increased in the in-vitro-experiment by the addition of substances which are oxydated by activated oxygen and thus produce light of a certain wavelength, which can be physically measured. Suitable substrates are luminole (5-amino-2,3-dihydro-1,4-phthalazindione) and lucigenine (10,10'-dimethyl-9,9'-biacri-diniumdinitrate), which increase the CL-response by 10^3 times.
(§3) All tests were carried out in 6-channel-Biolumat LB 9505 of Berthold, connected to an Apple-computer with a CL-evaluation program of Berthold.
(§4) Lucigenine was chosen for light amplification which emits photons at a narrow wavelength distribution of about 510 nm and thus almost lies in the optimum of the photo-multiplier sensitivity.
(§5) The pH-value of the measuring solution should be between 7.1 and 7.4, which is obtained by the addition of veronal-buffered salt solution. The test substances were dissolved in phosphate-buffered salt solution, (PBS-buffer). Both buffer systems contain 0.1% of glucose, because the "respiratory-burst"-reaction is connected with an increase of the glucose-metabolism.
(§6) Opsonised zymosan was used for phagocyte-activation. The measurement of the CL of isolated granulocytes was carried out with native blood of isolated polymorphonuclear leucocytes (PMNL), which had been adjusted with PBS-Puffer to 10^6 […].
(§7) The test substances were first together with the isolated granulocytes or with the whole blood incubated at room temperature for 10 minutes and then in biclumate for 10 minutes at 37° C. After addition of the opsonised zymosan, measurement in the biolumat at 37° C. started. […] A curve which was typical for each substance was obtained. The integrated surfaces are directly proportional to the intensity of the CL-response.
(§8) For determining the stimulation of the "respiratory-burst" of granulocytes,which had taken place, the same formula as for the granulocytic test was used.
20 ml of native blood were mixed with 30 mg EDTA. 15 ml of this blood were mixed with 7 ml of dextran in a syringe and allowed to stand at room temperature for 30 minutes. The leucocyte-containing supernatant was transfered into a sterile centrifugal tube and centrifugated at 1000 r.p.m. for 10 minutes. The deposit consisted of leucocytes and residual portions of erythrocytes, which can influence measurement by their colour quench. The residual erythrocytes were removed by hypotonic lyis. For this purpose, the deposit was suspended in 0.25% of NaCl-solution and agitated on the whirlmix for 20 seconds. Then 20 ml of 1.6% NaCl-solution were admixed and agitated again. After centrifugation at 2000 r.p.m. for 10 minutes, the supernatant was sucked off and the whole process was repeated twice. Subsequently, the deposit was suspended in 2 ml of PBS-buffer and diluted 1:10 with Turcks-solution. It was adjusted in the Neubauer's chamber with PBS-buffer to 10^6 -cells/ml.
630 μl of veronal-buffered salt solution
(§9) 100 μl of lucigenine-solution
(§10) 200 μl of substance dissolved in PBS and PBS as control
(§11) After preincubation at room temperature for 10 minutes and subsequent incubation for 10 minutes at 37° C. in 6-channel-Biolumat, 40 μl of opsonised zymosan were admixed under through stirring and measurement was started. Measuring was stopped after 60 minutes.
(§12) The CL-response of the samples was stored by a computer over the measuring period, and after measurement illustrated in the form of a curve. By integration of the surfaces, the intensity of the CL-response of the respective sample was obtained in cpm.
(§13) The increase S of the CL-response by a test substance was calculated according to [formula]

[2] = tested on: neutrophil granulocytes (PMNL); assay: Granulocytic test modified after BRANDT (phagocytosis of yeast particles); type: cell-based, human
Description: 1. […] They represent about 60-70% of all leucocytes in the human blood. The phagocytosis effect of all these granulocytes can be measured in vitro according to a method developed by BRAND (Scand. J. Haematol. Suppl. 2, 1967) and modified by TYMPNER (Munich Med. Weekly 8, 251, 1978).
A granulocytic fraction is taken from the blood of healthy probands (PMNL--abbreviation of polymorphonuclearleucocytes)
This PMNL-fraction mainly consists of neutrophil granulocytes and few eosinophil and basophil granulocytes as well as of lymphocytes, monocytes and thrombocytes. After addition of a defined amount of yeast cells (Saccharomyces cerevisiae) and the substance to be tested incubation is carried out for 10 minutes at 37° C., the suspension is spread on an object carrier and incubated at room temperature for further 35 minutes. Then the spreads are coloured and microscopically evaluated. 100 PMNL-cells are selected per object carrier, and it is determined how many yeast particles of the individual cells have been phagocytised. The phagocytosis index indicates the average number of phagocytised yeast particles.
15 ml of heparinised venous blood of clinically healthy adults was diluted with 1.5% of dextran T 500 (Pharmacia) 2:1 and allowed to stand at room temperature for 30 minutes. The supernatant containing leucocytes was injected into a sterile plastic tube and centrifugated for 7 minutes at 500 r.p.m. The granulocytes in the deposit were washed twice with 5 ml of PPM I-buffer in each case. Then the granulocytes were suspended in about 5 ml of buffer and adjusted in the Neubauer's chamber to a concentration of 5×10^6 cells/ml.
Yeast suspended in 0.9% of NaCl was heated to 100° C., three times filtered through gaze and adjusted to 3-5×10^7 particles/ml.
The serum of 5 clinically healthy adults was mixed and frozen in portions of 5 ml. For the test dilution was carried out with 0.9% of NaCl 1:10.
The test was carried out as follows: 0.2 ml of substance dissolved in 0.9% of NaCl and 0.2 ml of 0.9% NaCl, as a control substance, were pipetted to 0.2 ml, each, of pool serum, granulocyte- and yeast suspension and first incubated for 10 minutes at 37° C. Then 0.5 ml of each preparation were applied to an object carrier and incubated in a humid chamber at room temperature for further 35 minutes. Granulocytes deposited, the supernatant was carefully washed with 0.9% of NaCl, and the object carrier was dried with a dryer.
100 granulocytes were counted out per object carrier, and it was determined how many yeast particles of the individual cells had been phagocytised. The phagocytosis index (PJ) indicates the average number of yeast particles per granulocyte. The increase (S) of the phagocytosis activity in the blank value was calculated according to: [formula]

diluted whole blood = assay: Chemiluminescence test (CL), whole blood method; type: cell-based; settings: Homo sapiens, 1 h, read-out: Percental increase of the CL-response
Protocol: as §1, §2, §3, §4, §5, §6, §7, §8
20 ml of native blood were mixed with 30 mg EDTA as anti-coagulant and diluted 1:100 with PBS-buffer.
460 μl of veronal-buffered salt solution
200 μl of diluted whole blood
as §9, §10, §11, §12, §13

[3] = concentration 10^-3 %, CL method not stated
[4] = concentration 10^-4 %, CL method not stated
[5] = concentration 10^-5 %, CL method not stated
[6] = concentration 10^-6 %, CL method not stated
[7] = concentration 10^-7 %, CL method not stated
[8] = isolated granulocytes, concentration 10^-4 %
[9] = isolated granulocytes, concentration 10^-5 %
[10] = isolated granulocytes, concentration 10^-6 %
[11] = isolated granulocytes, concentration 10^-7 %
[12] = isolated granulocytes, concentration 10^-8 %

COC(=O)C1=COC(C)C2CN3CCC4(C(=O)Nc5ccccc54)C3CC12 (single isomer, unassigned; isomer a) [Isomitraphylline, normal-isomitraphylline, isomer A]
percental increase of the CL-response [1, 3]: 15.4% | percental increase of the CL-response [1, 4]: 15.7% | percental increase of the CL-response [1, 5]: 36.1% | percental increase of the CL-response [1, 6]: 46.7% | percental increase of the CL-response [1, 7]: 18.6% | activity in the granulocytic test [2]: active | percental phagocytosis increase ([2]; concentration 10^-2): 16.5% | percental phagocytosis increase ([2]; concentration 10^-3): 27.0% | percental phagocytosis increase ([2]; concentration 10^-4): 27.0% | percental phagocytosis increase ([2]; concentration 10^-5): 19.4% | percental phagocytosis increase ([2]; concentration 10^-6): 5.7%

COC(=O)C1=COC(C)C2CN3CCC4(C(=O)Nc5ccccc54)C3CC12 (single isomer, unassigned; isomer a) [Isopteropodine, allo-isopteropodine, isomer A]
activation at 1e-08 % ([1]; Homo sapiens, PMNL, concentration 10^-8 %, CL method not stated, read-out: percental increase of the CL-response): 31.2% | percental increase of the CL-response [1, 3]: 67.2% | percental increase of the CL-response [1, 4]: 66.0% | percental increase of the CL-response [1, 5]: 55.7% | percental increase of the CL-response [1, 6]: 68.1% | percental increase of the CL-response [1, 7]: 55.3% | activity in the granulocytic test [2]: active | percental phagocytosis increase ([2]; concentration 10^-2): 23.4% | percental phagocytosis increase ([2]; concentration 10^-3): 48.7% | percental phagocytosis increase ([2]; concentration 10^-4): 55.9% | percental phagocytosis increase ([2]; concentration 10^-5): 38.2% | percental phagocytosis increase ([2]; concentration 10^-6): 28.2% | percental phagocytosis increase ([2]; concentration 10^-7): 13.6%

COC(=O)C1=COC(C)C2CN3CCC4(C(=O)Nc5ccccc54)C3CC12 (single isomer, unassigned; isomer b) [Pteropodine, allo-pteropodine, isomer B]
percental increase of the CL-response ([1]; concentration 10^-3 %, CL method not stated, listed as Pteropidine): 10.6% | percental increase of the CL-response ([1]; concentration 10^-4 %, CL method not stated, listed as Pteropidine): 10.0% | percental increase of the CL-response ([1]; concentration 10^-5 %, CL method not stated, listed as Pteropidine): 23.7% | percental increase of the CL-response ([1]; concentration 10^-6 %, CL method not stated, listed as Pteropidine): 15.4% | activity in the granulocytic test [2]: active | percental phagocytosis increase ([2]; concentration 10^-2): 11.2% | percental phagocytosis increase ([2]; concentration 10^-3): 21.7% | percental phagocytosis increase ([2]; concentration 10^-4): 26.1% | percental phagocytosis increase ([2]; concentration 10^-5): 23.0%

COc1cccc2c1cc([N+](=O)[O-])c1c(C(=O)O)cc3c(c12)OCO3 [aristolochic acid]
activation at 0.001 % (diluted whole blood; concentration 10^-3 %): 51.9% | activation at 0.0001 % (diluted whole blood; concentration 10^-4 %): 19.2% | activation at 1e-05 % (diluted whole blood; concentration 10^-5 %): 21.8% | activation at 1e-06 % (diluted whole blood; concentration 10^-6 %): 14% | activation at 1e-07 % (diluted whole blood; concentration 10^-7 %): 5.5% | activation at 0.0001 % ([1]; Homo sapiens, 1 h, PMNL, concentration 10^-4 %, read-out: Percental increase of the CL-response): 85.1% | activation at 1e-05 % ([1]; Homo sapiens, 1 h, PMNL, concentration 10^-5 %, read-out: Percental increase of the CL-response): 93.5% | activation at 1e-06 % ([1]; Homo sapiens, 1 h, PMNL, concentration 10^-6 %, read-out: Percental increase of the CL-response): 68.3% | activation at 1e-07 % ([1]; Homo sapiens, 1 h, PMNL, concentration 10^-7 %, read-out: Percental increase of the CL-response): 61.9% | activation at 1e-08 % ([1]; Homo sapiens, 1 h, PMNL, concentration 10^-8 %, read-out: Percental increase of the CL-response): 58.7% | activation at 1e-09 % ([1]; Homo sapiens, 1 h, PMNL, concentration 10^-9 %, read-out: Percental increase of the CL-response): 31.3% | activation at 0.0001 % ([1]; Homo sapiens, PMNL, 1 h, isolated granulocytes, concentration 10^-4 %, read-out: Increase of CL-response): 126% | activation at 1e-05 % ([1]; Homo sapiens, PMNL, 1 h, isolated granulocytes, concentration 10^-5 %, read-out: Increase of CL-response): 160% | activation at 1e-06 % ([1]; Homo sapiens, PMNL, 1 h, isolated granulocytes, concentration 10^-6 %, read-out: Increase of CL-response): 69.8% | activation at 1e-07 % ([1]; Homo sapiens, PMNL, 1 h, isolated granulocytes, concentration 10^-7 %, read-out: Increase of CL-response): 52.8% | activation at 1e-08 % ([1]; Homo sapiens, PMNL, 1 h, isolated granulocytes, concentration 10^-8 %, read-out: Increase of CL-response): 93.4% | Peak-Maximum [1, 8]: 4.80 cpm × 10^5 | tmax [1, 8]: 30.0 min | Peak-Maximum [1, 9]: 5.52 cpm × 10^5 | tmax [1, 9]: 32.6 min | Peak-Maximum [1, 10]: 3.40 cpm × 10^5 | tmax [1, 10]: 34.6 min | Peak-Maximum [1, 11]: 3.24 cpm × 10^5 | tmax [1, 11]: 32.0 min | Peak-Maximum [1, 12]: 4.10 cpm × 10^5 | tmax [1, 12]: 29.3 min | concentration of the efficiency maximum in the CL-test ([1]; isolated granulocytes, lower by a power of ten than in the granulocytic test): 10^-5%
